ChEMBL document CHEMBL3885861, “Open TG-GATES”

Species on record: Rattus norvegicus
Assay: Open TG-GATES - Regimen: Single
Format: toxicity, organism-based, Sprague-Dawley
Set-up: regimen Single, gender Male, age 6 weeks
Settings: in vivo, po, 1 mg/kg, route gavage, dose level Low; for APTT / Bas / Eos / Fbg / Hb / Ht / Lym / MCH / MCHC / MCV / Mono / Neu / PT / Plat / RBC / Ret / WBC: tissue Blood; for KIDNEY_L / KIDNEY_R / KIDNEY_TOTAL: tissue Kidney; for LIVER: tissue Liver; for A/G / ALP / ALT / AST / BUN / CRE / Ca / Cl / DBIL / GLC / IP / K / LDH / Na / PL / RALB / TBIL / TC / TG / TP / gamma-GTP: tissue Plasma

O=NN(CCCl)C(=O)NC1CCCCC1 [LOMUSTINE]
TERMINAL_BW (3 h): 204.1 g | APTT (3 h): 16.5 s | Bas (3 h): 0% | Eos (3 h): 0.2% | Fbg (3 h): 224.2 mg/dL | Hb (3 h): 13.4 g/dL | Ht (3 h): 40.4% | Lym (3 h): 78.8% | MCH (3 h): 21.6 pg | MCHC (3 h): 33.2% | MCV (3 h): 65.2 fL | Mono (3 h): 8.4% | Neu (3 h): 12.2% | PT (3 h): 11.3 s | Plat (3 h): 105.5 x10_4/uL | RBC (3 h): 619 x10_4/ul | Ret (3 h): 8.6% | WBC (3 h): 119.1 x10_2/uL | KIDNEY_L (3 h): 0.9 g | KIDNEY_R (3 h): 0.9 g | KIDNEY_TOTAL (3 h): 1.9 g | LIVER (3 h): 9.6 g | A/G (3 h): 2 | ALP (3 h): 970.8 IU/L | ALT (3 h): 33.4 IU/L | AST (3 h): 60 IU/L | BUN (3 h): 11 mg/dL | CRE (3 h): 0.5 mg/dL | Ca (3 h): 11.4 mg/dL | Cl (3 h): 105.8 meq/L | DBIL (3 h): 0.028 mg/dL | GLC (3 h): 184.2 mg/dL | IP (3 h): 10 mg/dL | K (3 h): 4.8 meq/L | LDH (3 h): 82.2 IU/L | Na (3 h): 139.8 meq/L | PL (3 h): 135.8 mg/dL | RALB (3 h): 3.7 g/dL | TBIL (3 h): 0.3 mg/dL | TC (3 h): 79 mg/dL | TG (3 h): 52.4 mg/dL | TP (3 h): 5.6 g/dL | gamma-GTP (3 h): 1.4 IU/L | TERMINAL_BW (6 h): 203.2 g | APTT (6 h): 16.9 s | Bas (6 h): 0% | Eos (6 h): 0.4% | Fbg (6 h): 227.8 mg/dL | Hb (6 h): 13.4 g/dL | Ht (6 h): 40.2% | Lym (6 h): 82% | MCH (6 h): 21.8 pg | MCHC (6 h): 33.3% | MCV (6 h): 65.6 fL | Mono (6 h): 5.8% | Neu (6 h): 11.8% | PT (6 h): 12.2 s | Plat (6 h): 96.8 x10_4/uL | RBC (6 h): 613.2 x10_4/ul | Ret (6 h): 9% | WBC (6 h): 116.2 x10_2/uL | KIDNEY_L (6 h): 0.9 g | KIDNEY_R (6 h): 0.9 g | KIDNEY_TOTAL (6 h): 1.9 g | LIVER (6 h): 9 g | A/G (6 h): 2 | ALP (6 h): 759.8 IU/L | ALT (6 h): 33.2 IU/L | AST (6 h): 66.6 IU/L | BUN (6 h): 11.2 mg/dL | CRE (6 h): 0.5 mg/dL | Ca (6 h): 10.9 mg/dL | Cl (6 h): 104.6 meq/L | DBIL (6 h): 0.008 mg/dL | GLC (6 h): 188.6 mg/dL | IP (6 h): 10.5 mg/dL | K (6 h): 5.1 meq/L | LDH (6 h): 90.2 IU/L | Na (6 h): 140.8 meq/L | PL (6 h): 142.8 mg/dL | RALB (6 h): 3.7 g/dL | TBIL (6 h): 0.2 mg/dL | TC (6 h): 84 mg/dL | TG (6 h): 41.2 mg/dL | TP (6 h): 5.5 g/dL | gamma-GTP (6 h): 1.4 IU/L | TERMINAL_BW (9 h): 200.6 g | APTT (9 h): 16.5 s | Bas (9 h): 0% | Eos (9 h): 0.6% | Fbg (9 h): 220.2 mg/dL | Hb (9 h): 13.3 g/dL | Ht (9 h): 40.4% | Lym (9 h): 78.6% | MCH (9 h): 21.9 pg | MCHC (9 h): 32.9% | MCV (9 h): 66.4 fL | Mono (9 h): 6.6% | Neu (9 h): 14.2% | PT (9 h): 12.4 s | Plat (9 h): 99.4 x10_4/uL | RBC (9 h): 608 x10_4/ul | Ret (9 h): 9% | WBC (9 h): 86.7 x10_2/uL | KIDNEY_L (9 h): 0.9 g | KIDNEY_R (9 h): 0.9 g | KIDNEY_TOTAL (9 h): 1.8 g | LIVER (9 h): 8.6 g | A/G (9 h): 2.5 | ALP (9 h): 787 IU/L | ALT (9 h): 32 IU/L | AST (9 h): 62.6 IU/L | BUN (9 h): 8.8 mg/dL | CRE (9 h): 0.5 mg/dL | Ca (9 h): 10.6 mg/dL | Cl (9 h): 105.8 meq/L | DBIL (9 h): 0.036 mg/dL | GLC (9 h): 184.6 mg/dL | IP (9 h): 10.2 mg/dL | K (9 h): 4.6 meq/L | LDH (9 h): 76.6 IU/L | Na (9 h): 138.4 meq/L | PL (9 h): 127.4 mg/dL | RALB (9 h): 3.9 g/dL | TBIL (9 h): 0.4 mg/dL | TC (9 h): 72.4 mg/dL | TG (9 h): 39 mg/dL | TP (9 h): 5.5 g/dL | gamma-GTP (9 h): 4.2 IU/L | TERMINAL_BW (24 h): 218.5 g | APTT (24 h): 18.1 s | Bas (24 h): 0% | Eos (24 h): 1% | Fbg (24 h): 201 mg/dL | Hb (24 h): 12.6 g/dL | Ht (24 h): 37.9% | Lym (24 h): 80.8% | MCH (24 h): 21.8 pg | MCHC (24 h): 33.4% | MCV (24 h): 65.3 fL | Mono (24 h): 5.8% | Neu (24 h): 12.6% | PT (24 h): 12.2 s | Plat (24 h): 94.4 x10_4/uL | RBC (24 h): 580.2 x10_4/ul | Ret (24 h): 9% | WBC (24 h): 138.2 x10_2/uL | KIDNEY_L (24 h): 1 g | KIDNEY_R (24 h): 1 g | KIDNEY_TOTAL (24 h): 2 g | LIVER (24 h): 10.7 g | A/G (24 h): 2.2 | ALP (24 h): 961 IU/L | ALT (24 h): 37.6 IU/L | AST (24 h): 68.4 IU/L | BUN (24 h): 15.8 mg/dL | CRE (24 h): 0.5 mg/dL | Ca (24 h): 11.1 mg/dL | Cl (24 h): 104.6 meq/L | DBIL (24 h): 0.018 mg/dL | GLC (24 h): 185.4 mg/dL | IP (24 h): 7.6 mg/dL | K (24 h): 4.8 meq/L | LDH (24 h): 100.6 IU/L | Na (24 h): 138 meq/L | PL (24 h): 144.6 mg/dL | RALB (24 h): 3.9 g/dL | TBIL (24 h): 0.3 mg/dL | TC (24 h): 76 mg/dL | TG (24 h): 98 mg/dL | TP (24 h): 5.7 g/dL | gamma-GTP (24 h): 1.8 IU/L
